Laboratory results taken from patent publication US8637537B2, “Serine/threonine kinase inhibitors” (Genentech, Inc., priority 2011, dated 2014).
Where two headings read alike, the source gives them in different places.

Target: T1, human recombinant GST-PAK1-KD protein (Homo sapiens, UniProt Q13153)
T1 construct: residues #249-545 of human PAK1, UniProtKP/Swiss Q13153; His6 (N); made in house; host or cells: Sf9 insect cells, pAcGP67 baculovirus expression vector
Test: GST-PAK1-KD (kinase domain) biochemical assay, microfluidic mobility shift

[1] = Table II, PAK1 Ki class, read-out: Ki

T1 sequence (Q13153 249-545): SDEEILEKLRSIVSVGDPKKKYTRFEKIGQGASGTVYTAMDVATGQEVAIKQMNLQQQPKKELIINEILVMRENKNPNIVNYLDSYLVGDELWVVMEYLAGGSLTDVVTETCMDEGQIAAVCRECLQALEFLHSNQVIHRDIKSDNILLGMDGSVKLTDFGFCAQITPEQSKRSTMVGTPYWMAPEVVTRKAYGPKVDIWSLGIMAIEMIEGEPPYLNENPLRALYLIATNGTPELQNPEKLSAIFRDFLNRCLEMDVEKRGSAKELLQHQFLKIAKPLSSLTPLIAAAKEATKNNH

Row | SMILES | Ki [1] [nM] | Ki (GST-PAK1-KD Inhibition Assay - Example 65, read-out: PAK1 inhibition Ki) [nM]
1 | CN(Cc1ccc2[nH]cnc2c1Cl)c1ncc(F)c(Nc2cc(C(F)(F)F)[nH]n2)n1 [II-39, N^2-((4-Chloro-1H-benzo[d]imidazol-5-yl)methyl)-5-fluoro-N^4-(5-(trifluoromethyl)-1H-pyrazol-3-yl)-N2-methylpyrimidine-2,4-diamine] | 50 to 250 | –
2 | C[C@H](Nc1nccc(Nc2cc(C3CC3)[nH]n2)n1)c1cc(F)cc2c1cnn2C [II-40, (S)-N^4-(5-cyclopropyl-1H-pyrazol-3-yl)-N^2-(1-(6-fluoro-1-methyl-1H-indazol-4-yl)ethyl)pyrimidine-2,4-diamine] | 50 to 250 | –
3 | Clc1c(CNc2nccc(Nc3cc(COC4CCC4)[nH]n3)n2)ccc2[nH]cnc12 [II-43, N^2-((4-Chloro-1H-benzo[d]imidazol-5-yl)methyl)-N^4-(5-(cyclobutoxymethyl)-1H-pyrazol-3-yl)pyrimidine-2,4-diamine] | 50 to 250 | 284
4 | CNCCN(Cc1cc(F)cc2[nH]ncc12)c1nccc(Nc2cc(C3CC3)[nH]n2)n1 [II-47, N^4-(5-cyclopropyl-1H-pyrazol-3-yl)-N^2-((6-fluoro-1H-indazol-4-yl)methyl)-N^2-(2-(methylamino)ethyl)pyrimidine-2,4-diamine] | < 50 | –
5 | CN(C)CCCN(Cc1cc(F)cc2[nH]ncc12)c1nccc(Nc2cc(C3CC3)[nH]n2)n1 [II-48, N^4-(5-cyclopropyl-1H-pyrazol-3-yl)-N^2-(3-(dimethylamino)propyl)-N^2-((6-fluoro-1H-indazol-4-yl)methyl)pyrimidine-2,4-diamine] | < 50 | –
6 | C[C@H](Nc1nccc(Nc2cc(C3CC3)[nH]n2)n1)c1cc(F)cc2[nH]ncc12 [II-53, (S)-N^4-(5-cyclopropyl-1H-pyrazol-3-yl)-N^2-(1-(6-fluoro-1H-indazol-4-yl)ethyl)pyrimidine-2,4-diamine] | < 50 | –
7 | Fc1cnc(NCc2cc(Cl)cc3[nH]ncc23)nc1Nc1cc(C2CC2)[nH]n1 [II-57, N^2-((6-chloro-1H-indazol-4-yl)methyl)-N^4-(5-cyclopropyl-1H-pyrazol-3-yl)-5-fluoropyrimidine-2,4-diamine] | < 50 | –
8 | CN(Cc1cc(F)cc2[nH]ncc12)c1nccc(Nc2cc(C3CC3)[nH]n2)n1 [II-58, N^4-(5-cyclopropyl-1H-pyrazol-3-yl)-N^2-((6-fluoro-1H-indazol-4-yl)methyl)-N^2-methylpyrimidine-2,4-diamine] | < 50 | –
9 | C[C@H](CN(Cc1cc(F)cc2[nH]ncc12)c1nccc(Nc2cc(C3CC3)[nH]n2)n1)N(C)C [II-62, (R)-N^4-(5-cyclopropyl-1H-pyrazol-3-yl)-N^2-(2-(dimethylamino)propyl)-N^2-((6-fluoro-1H-indazol-4-yl)methyl)pyrimidine-2,4-diamine] | < 50 | –
10 | CC(C)N(Cc1cc(F)cc2[nH]ncc12)c1nccc(Nc2cc(C3CC3)[nH]n2)n1 [II-63, N^4-(5-cyclopropyl-1H-pyrazol-3-yl)-N^2-((6-fluoro-1H-indazol-4-yl)methyl)-N^2-isopropylpyrimidine-2,4-diamine] | < 50 | –
11 | OCCN(Cc1cc(F)cc2[nH]ncc12)c1nccc(Nc2cc(C3CC3)[nH]n2)n1 [II-66, 2-((4-((5-cyclopropyl-1H-pyrazol-3-yl)amino)pyrimidin-2-yl)((6-fluoro-1H-indazol-4-yl)methyl)anino)ethanol] | < 50 | –
12 | C[C@@H](O)CN(Cc1cc(F)cc2[nH]ncc12)c1nccc(Nc2cc(C3CC3)[nH]n2)n1 [II-67, (R)-1-((4-((5-cyclopropyl-1H-pyrazol-3-yl)amino)pyrimidin-2-yl)((6-fluoro-1H-indazol-4-yl)methyl)amino)propan-2-ol] | < 50 | –
13 | CCN(Cc1cc(F)cc2[nH]ncc12)c1nccc(Nc2cc(C3CC3)[nH]n2)n1 [II-70, N^4-(5-cyclopropyl-1H-pyrazol-3-yl)-N^2-ethyl-N^2-((6-fluoro-1H-indazol-4-yl)methyl)pyrimidine-2,4-diamine] | < 50 | –
14 | C[C@H](Nc1ncc(F)c(Nc2cc(C3CC3)[nH]n2)n1)c1cc(F)cc2[nH]ncc12 [II-71, (S)-N^4-(5-cyclopropyl-1H-pyrazol-3-yl)-5-fluoro-N^2-(1-(6-fluoro-1H-indazol-4-yl)ethyl)pyrimidine-2,4-diamine] | < 50 | –
15 | C[C@H](O)CN(Cc1cc(F)cc2[nH]ncc12)c1nccc(Nc2cc(C3CC3)[nH]n2)n1 [II-72, (S)-1-((4-((5-cyclopropyl-1H-pyrazol-3-yl)amino)pyrimidin-2-yl)((6-fluoro-1H-indazol-4-yl)methyl)amino)propan-2-ol] | < 50 | –
16 | OCCN(Cc1cccc2[nH]ncc12)c1nccc(Nc2cc(C3CC3)[nH]n2)n1 [II-77, 2-(((1H-indazol-4-yl)methyl)(4-((5-cyclopropyl-1H-pyrazol-3-yl)amino)pyrimidin-2-yl)amino)ethanol] | < 50 | –

Continued, in another order:

Row | Ki [1] [nM] | SMILES | Ki (GST-PAK1-KD Inhibition Assay - Example 65, read-out: PAK1 inhibition Ki) [nM]
17 | 50 to 250 | C[C@H](Nc1nccc(Nc2cc(C3CC3)[nH]n2)n1)c1cccc2[nH]cnc12 [II-41, (S)-N^2-(1-(1H-benzo[d]imidazol-4-yl)ethyl)-N^4-(5-cyclopropyl-1H-pyrazol-3-yl)pyrimidine-2,4-diamine] | –
18 | 50 to 250 | CN(Cc1ccc2[nH]cnc2c1Cl)c1ncc(F)c(Nc2cc(C(C)(C)C)[nH]n2)n1 [II-42, N^4-(5-tert-Butyl-1H-pyrazol-3-yl)-N^2-((4-chloro-1H-benzo[d]imidazol-5-yl)methyl)-5-fluoro-N^2-methylpyrimidine-2,4-diamine] | –
19 | < 50 | Clc1cc(CNc2nccc(Nc3cc(C4CC4)[nH]n3)n2)c2nc[nH]c2c1 [II-44, N^2-((6-Chloro-1H-benzo[d]imidazol-4-yl)methyl)-N^4-(5-cyclopropyl-1H-pyrazol-3-yl)-pyrimidine-2,4-diamine] | –
20 | 50 to 250 | Cc1cc(Nc2ccnc(NCc3ccc4[nH]cnc4c3Cl)n2)n[nH]1 [II-46, N^2-((4-Chloro-1H-benzo[d]imidazol-5-yl)methyl)-N^4-(5-methyl-1H-pyrazol-3-yl)pyrimidine-2,4-diamine] | –
21 | < 50 | CN(Cc1ccc2[nH]cnc2c1Cl)c1nccc(Nc2cc([C@@H]3C[C@H]3F)[nH]n2)n1 [II-49, N^2-((4-chloro-1H-benzo[d]imidazol-5-yl)methyl)-N^4-(5-((1S,2R)-2-fluorocyclopropyl)-1H-pyrazol-3-yl)-N^2-methylpyrimidine-2,4-diamine] | –
22 | < 50 | Clc1cc(CNc2nccc(Nc3cc(C4CC4)[nH]n3)n2)c2cn[nH]c2c1 [II-50, N^2-((6-chloro-1H-indazol-4-yl)methyl)-N^4-(5-cyclopropyl-1H-pyrazol-3-yl)pyrimidine-2,4-diamine] | –
23 | < 50 | Fc1cc(CNc2nccc(Nc3cc(C4CC4)[nH]n3)n2)c2cn[nH]c2c1 [II-52, N^4-(5-cyclopropyl-1H-pyrazol-3-yl)-N^2-((6-fluoro-1H-indazol-4-yl)methyl)pyrimidine-2,4-diamine] | –
24 | < 50 | CN(Cc1ccc2[nH]cnc2c1Cl)c1nccc(Nc2cc([C@H]3CC3(F)F)[nH]n2)n1 [II-54, (R)-N^2-((4-chloro-1H-benzo[d]imidazol-5-yl)methyl)-N^4-(5-(2,2-difluorocyclopropyl)-1H-pyrazol-3-yl)-N^2-methylpyrimidine-2,4-diamine] | –
25 | < 50 | CN(Cc1ccc2[nH]cnc2c1Cl)c1nccc(Nc2cc(C3(F)CC3)[nH]n2)n1 [II-55, N^2-((4-chloro-1H-benzo[d]imidazol-5-yl)methyl)-N^4-(5-(1-fluorocyclorpropyl)-1H-pyrazol-3-yl)-N^2-methylpyrimidine-2,4-diamine] | –
26 | < 50 | Fc1cc(CNc2nccc(Nc3cc([C@H]4C[C@@H]4F)[nH]n3)n2)c2cn[nH]c2c1 [II-60, N^2-((6-fluoro-1H-indazol-4-yl)methyl)-N^4-(5-((1R,2S)-2-fluorocyclopropyl)-1H-pyrazol-3-yl)pyrimidine-2,4-diamine] | –
27 | < 50 | C[C@H](Nc1nccc(Nc2cc(C3CC3)[nH]n2)n1)c1c(F)ccc2[nH]ncc12 [II-61, (S)-N^4-(5-cyclopropyl-1H-pyrazol-3-yl)-N^2-(1-(5-fluoro-1H-indazol-4-yl)ethyl)pyrimidine-2,4-diamine] | –
28 | < 50 | Fc1cc(CNc2nccc(Nc3cc([C@@H]4C[C@H]4F)[nH]n3)n2)c2cn[nH]c2c1 [II-64, N^2-((6-fluoro-1H-indazol-4-yl)methyl)-N^4-(5-((1S,2R)-2-fluorocyclopropyl)-1H-pyrazol-3-yl)pyrimidine-2,4-diamine] | –
29 | < 50 | Fc1cc(CNc2nccc(Nc3cc([C@@H]4CC4(F)F)[nH]n3)n2)c2cn[nH]c2c1 [II-65, (S)-N^4-(5-(2,2-difluorocyclopropyl)-1H-pyrazol-3-yl)-N^2-((6-fluoro-1H-indazol-4-yl)methyl)pyrimidine-2,4-diamine] | –
30 | 250 to 1000 | CCc1cc(Nc2nc(N(C)Cc3ccc4[nH]cnc4c3Cl)ncc2F)n[nH]1 [II-69, N^2-((4-chloro-1H-benzo[d]imidazol-5-yl)methyl)-N^4-(5-ethyl-1H-pyrazol-3-yl)-5-fluoro-N^2-methylpyrimidine-2,4-diamine] | –
31 | < 50 | Fc1ccc2[nH]ncc2c1CNc1nccc(Nc2cc(C3CC3)[nH]n2)n1 [II-75, N^4-(5-cyclopropyl-1H-pyrazol-3-yl)-N^2-((5-fluoro-1H-indazol-4-yl)methyl)pyrimidine-2,4-diamine] | –
32 | < 50 | Cc1cc(Nc2ccnc(N(C)Cc3ccc4[nH]cnc4c3Cl)n2)n[nH]1 [II-76, N^2-((4-chloro-1H-benzo[d]imidazol-5-yl)methyl)-N^2-methyl-N^4-(5-methyl-1H-pyrazol-3-yl)pyrimidine-2,4-diamine] | –
33 | < 50 | c1cc(Nc2cc(C3CC3)[nH]n2)nc(N(Cc2ccc3[nH]cnc3c2)C2CC2)n1 [II-78, N^2-((1H-benzo[d]imidazol-5-yl)methyl)-N^2-cyclopropyl-N^4-(5-cyclopropyl-1H-pyrazol-3-yl)pyrimidine-2,4-diamine] | –
34 | < 50 | C[C@H](c1cc(Nc2ccnc(NCc3ccc4[nH]cnc4c3Cl)n2)n[nH]1)C1CC1 [II-79, (S)-N^2-((4-chloro-1H-benzo[d]imidazol-5-yl)methyl)-N^4-(5-(1-cyclopropylethyl)-1H-pyrazol-3-yl)pyrimidine-2,4-diamine] | –
